Assays:
E. coli = assay: Food contact sanitizing efficacy (AOAC Method 960.09); type: cell-based; details: pH adjusted to 2.1 with phosphoric acid, 30 seconds exposure
Procedure: (§1) Additional testing to confirm food contact sanitizing efficacy (AOAC Method 960.09) comparing three AEC surfactants was conducted where the surfactants were diluted in 500 ppm synthetic hard water and pH adjusted to 2.1 with phosphoric acid. The evaluated AEC surfactants are further described above in Table 2.

S. aureus = assay: as above; type: cell-based; details: pH adjusted to 2.1 with phosphoric acid, 30 seconds exposure
Procedure: as §1

[1] = 500 ppm surfactant in 500 ppm synthetic hard water
[2] = 750 ppm surfactant in 500 ppm synthetic hard water
[3] = 1000 ppm surfactant in 500 ppm synthetic hard water

Capryleth-4 Carboxylic acid
Log reduction E. coli (E. coli; [1]): >7.59 log | Log reduction E. coli (E. coli; [2]): >7.59 log | Log reduction E. coli (E. coli; [3]): >7.59 log | Log reduction S. aureus (S. aureus; [1]): >7.34 log | Log reduction S. aureus (S. aureus; [2]): >7.34 log | Log reduction S. aureus (S. aureus; [3]): >7.34 log

Capryleth-6 Carboxylic acid
Log reduction E. coli (E. coli; [1]): 1.98 log | Log reduction E. coli (E. coli; [2]): 3.44 log | Log reduction E. coli (E. coli; [3]): >7.59 log | Log reduction S. aureus (S. aureus; [1]): >7.34 log | Log reduction S. aureus (S. aureus; [2]): >7.34 log | Log reduction S. aureus (S. aureus; [3]): >7.34 log

Capryleth-9 Carboxylic acid
Log reduction E. coli (E. coli; [1]): <1.19 log | Log reduction E. coli (E. coli; [2]): <1.19 log | Log reduction E. coli (E. coli; [3]): <1.19 log | Log reduction S. aureus (S. aureus; [1]): 5.31 log | Log reduction S. aureus (S. aureus; [2]): >7.34 log | Log reduction S. aureus (S. aureus; [3]): >7.34 log
